The values below come from PubChem BioAssay (NCI).

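Test compounds were applied to cells in 96-well plates for 48 hours at 5 doses. TGI denotes the concentration required for complete inhibition of growth.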

Test systems include M19-MEL melanoma; XF 498 CNS; KM20L2 colon; LXFL 529 NSCLC; DLD-1 colon; SNB-78 CNS; RXF-631 renal; DMS 273 small cell lung.
What all share (assay): growth of human tumour cells (NCI), 48 h

For `C/C(=N\NC(=S)N(C)C)c1ncc[nH]1`, the TGI with M19-MEL melanoma, in the assay on XF 498 CNS, in the assay on KM20L2 colon, in the assay on LXFL 529 NSCLC and in the assay on DLD-1 colon was more than 100 µM each time.

For `C/C(=N\NC(N)=S)c1ccc2c(c1)OCO2`, the TGI with SNB-78 CNS, in the assay with M19-MEL melanoma, in the assay on XF 498 CNS, in the assay with KM20L2 colon, in the assay on RXF-631 renal and in the assay on LXFL 529 NSCLC was more than 100 µM throughout. This compound also showed a TGI in the assay on DLD-1 colon of more than 100 µM.

For the compound `CC(=O)/C=C1/c2ccccc2N(C(C)=O)C1O` (stereo not drawn), the TGI in the assay on SNB-78 CNS, with M19-MEL melanoma, in the assay on KM20L2 colon, in the assay on LXFL 529 NSCLC, in the assay on DMS 273 small cell lung and in the assay on DLD-1 colon was more than 100 µM each time.

In the case of `Cc1cccc(C(C)(C)C)c1NC(=O)CC1C(=O)Nc2ccccc2S1=O` (stereo not drawn), the TGI in the assay with SNB-78 CNS, with XF 498 CNS, in the assay on KM20L2 colon, with RXF-631 renal, in the assay with LXFL 529 NSCLC and in the assay on DMS 273 small cell lung was more than 100 µM each time. The same compound came in with a TGI in the assay with DLD-1 colon of more than 100 µM.

With `CCc1ccccc1NC(=O)CCc1nc(=S)[nH][nH]1`, the TGI with SNB-78 CNS, in the assay on M19-MEL melanoma, with XF 498 CNS, with KM20L2 colon, in the assay on RXF-631 renal and in the assay with LXFL 529 NSCLC was more than 100 µM throughout. Also, the TGI in the assay on DMS 273 small cell lung and in the assay on DLD-1 colon was more than 100 µM in each case.

For `COc1ccc(C2(CN(C)C)COc3cc(OC)c(OC)cc3C2=O)cc1OC` (stereo not drawn), the TGI in the assay on SNB-78 CNS is more than 100 µM; in the assay with M19-MEL melanoma, more than 100 µM; with XF 498 CNS, more than 100 µM; in the assay on KM20L2 colon, more than 100 µM; with RXF-631 renal, more than 100 µM; in the assay on LXFL 529 NSCLC it was 48.8 µM. In the assay on DLD-1 colon, this compound had a TGI of 44.6 µM.

Turning to `COc1cc2c(cc1OC)-c1c(cnn1C1OC(COC(C)=O)C(OC(C)=O)C(OC(C)=O)C1OC(C)=O)CC2` (stereo not drawn), the TGI in the assay on SNB-78 CNS, in the assay on M19-MEL melanoma, with KM20L2 colon, in the assay with LXFL 529 NSCLC, with DMS 273 small cell lung and in the assay with DLD-1 colon was more than 100 µM in each case.

On to `O=[N+]([O-])c1ccc(Cc2nc3ccccc3s2)cc1`, for which the TGI with SNB-78 CNS, with M19-MEL melanoma, with XF 498 CNS, in the assay with KM20L2 colon, in the assay with LXFL 529 NSCLC and with DMS 273 small cell lung was more than 100 µM each time. This compound registered a TGI in the assay with DLD-1 colon of more than 100 µM.

For `O=C(CC(=O)Nc1ccc(Cl)cc1)NNCC(=O)Nc1nc(-c2ccccc2)cs1`, the TGI in the assay on SNB-78 CNS, with M19-MEL melanoma, with XF 498 CNS, in the assay with KM20L2 colon, in the assay with LXFL 529 NSCLC and with DMS 273 small cell lung was more than 100 µM throughout. Moreover, the TGI in the assay with DLD-1 colon was more than 100 µM.

For the compound `N=C(c1ccccc1)N1CCCCC1`, the TGI in the assay on SNB-78 CNS, in the assay on M19-MEL melanoma, in the assay on KM20L2 colon, with LXFL 529 NSCLC, in the assay on DMS 273 small cell lung and in the assay on DLD-1 colon was more than 100 µM each time.

`Cc1ccccc1C(C#N)/C(=N/NC(=O)c1cc2ccccc2cc1O)C(=O)Nc1cccc(Cl)c1` (stereo not drawn): the TGI in the assay on SNB-78 CNS is more than 100 µM; with M19-MEL melanoma it was 52.1 µM; in the assay on XF 498 CNS, 73.3 µM; with KM20L2 colon, 94.4 µM; in the assay with LXFL 529 NSCLC, more than 100 µM; in the assay on DMS 273 small cell lung, 32.5 µM. Moreover, the TGI in the assay on DLD-1 colon is more than 100 µM.

Turning to `CC(C)=CC(=O)Cc1nc2ccccc2[nH]c1=O`, the TGI in the assay with SNB-78 CNS, in the assay with M19-MEL melanoma, in the assay on KM20L2 colon, in the assay with RXF-631 renal, in the assay on LXFL 529 NSCLC and in the assay with DMS 273 small cell lung was more than 100 µM each time. Also, the TGI with DLD-1 colon is more than 100 µM.

As for `CN1C(c2ccccc2)CC(=Nc2ccccc2)CC1c1ccccc1` (stereo not drawn), the TGI in the assay on SNB-78 CNS was found to be 37.2 µM; in the assay with M19-MEL melanoma it was 15.7 µM; with KM20L2 colon, 26.5 µM; in the assay on RXF-631 renal, 67.6 µM; in the assay on LXFL 529 NSCLC it was 16.4 µM; in the assay with DMS 273 small cell lung, 22 µM. In the assay on DLD-1 colon, this compound came in with a TGI of 24.2 µM.

`CCNC(=O)C(O)C1(O)CCC2[C@@H]3CCC4=CC(=O)C=C[C@]4(C)C3[C@@H](O)C[C@@]21C` (stereo partly drawn): the TGI with SNB-78 CNS, in the assay on M19-MEL melanoma, in the assay with XF 498 CNS, with KM20L2 colon, in the assay with RXF-631 renal and in the assay on LXFL 529 NSCLC was more than 100 µM in each case. Further, the TGI in the assay with DMS 273 small cell lung and in the assay with DLD-1 colon was more than 100 µM in each case.

Take `COc1ccccc1NC(=O)CC(=O)n1nc(C)c(N=Nc2ccccc2F)c1C`: the TGI was more than 31.6 µM in the assay on SNB-78 CNS; more than 100 µM in the assay with M19-MEL melanoma; more than 83.3 µM in the assay on XF 498 CNS; more than 100 µM with KM20L2 colon; more than 100 µM with LXFL 529 NSCLC; more than 100 µM in the assay on DMS 273 small cell lung. The compound also had a TGI in the assay with DLD-1 colon of more than 100 µM.

Consider `COC(=O)c1nc(-c2ccc(Cl)c(Cl)c2)nc2ccccc12`, for which the TGI with SNB-78 CNS is more than 100 µM; in the assay with M19-MEL melanoma it was more than 100 µM; in the assay with XF 498 CNS it was 19.7 µM; in the assay with KM20L2 colon, more than 100 µM; with RXF-631 renal, more than 100 µM; in the assay with LXFL 529 NSCLC, more than 100 µM. The TGI in the assay on DMS 273 small cell lung and in the assay with DLD-1 colon was more than 100 µM throughout.

For the compound `C=CCOc1cc2c(cc1C(C)c1ccc(OC)cc1)OCO2` (stereo not drawn), the TGI was more than 100 µM with SNB-78 CNS; more than 100 µM in the assay on M19-MEL melanoma; 0.753 µM in the assay with XF 498 CNS; 1.21 µM with KM20L2 colon; 63.9 µM with LXFL 529 NSCLC; more than 100 µM with DMS 273 small cell lung. For the same compound, the TGI in the assay on DLD-1 colon is more than 100 µM.

Consider `CSC(=S)N(C)c1nc(=[N+](C)C)ss1`, for which the TGI in the assay with SNB-78 CNS, in the assay on M19-MEL melanoma, in the assay on XF 498 CNS, with KM20L2 colon, in the assay with LXFL 529 NSCLC and in the assay on DMS 273 small cell lung was more than 100 µM in each case. The TGI in the assay with DLD-1 colon was more than 100 µM.

As to `COc1ccc2[nH]c3c(cnn4cnnc34)c2c1`, the TGI with M19-MEL melanoma, in the assay with KM20L2 colon, in the assay on RXF-631 renal, in the assay on LXFL 529 NSCLC, in the assay on DMS 273 small cell lung and with DLD-1 colon was more than 100 µM in each case.

Consider `Cc1cc2c(C(C)C)c(O)c(O)c3coc(/c1=c1/c(C)cc4c(C(C)C)c(=O)c(=O)c5coc1c45)c32`, for which the TGI in the assay with SNB-78 CNS came to 25.2 µM; with M19-MEL melanoma it was 19.7 µM; in the assay with XF 498 CNS, 17.4 µM; with KM20L2 colon, 18.1 µM; in the assay with RXF-631 renal, 22 µM; in the assay on LXFL 529 NSCLC it was 12.7 µM. The results for the TGI in the assay on DMS 273 small cell lung and with DLD-1 colon were 13.8 µM and 16.4 µM, respectively.
